Patent US8309765B2, “Process for manufacture of high purity D-(−)-N,N-diethyl-2-(α-naphthoxy) propionamide” (United Phosphorus Limited, priority 2007, dated 2012)
≈ marks a conversion by molar mass, not a printed value.

What was measured:
[1] = stability in the presence of UV radiation; type: physicochemical
[2] = water solubility; type: physicochemical
[3] = system: certain weeds; details: cited from earlier work

Row | Compound | stability in the presence of UV radiation / UV light, colour change [1] | solubility ([2]; water, at 20° C.) [µg/mL] | activity relative to the (L)-isomer ([3]; (D)-isomer vs (L)-isomer) [times] | activity relative to the racemic mixture ([3]; (D)-isomer vs racemic mixture) | water solubility [2] [mg/1 ltr]
1 | CCN(CC)C(=O)C(C)Oc1cccc2ccccc12 (racemic) [Racemic form of -(−)-N,N-diethyl-2-(α-naphthoxy)propionamide, N,N-diethyl-2-(α-naphthoxy)propionamide, reference compound] | decomposes in the presence of UV radiation with colour change | 73 (≈ 269 µM) |  |  | 
2 | CCN(CC)C(=O)[C@@H](C)Oc1cccc2ccccc12 [D-(−)-N,N-diethyl-2-(α-naphthoxy)propionamide] | stable in the presence of UV light |  | 8 | 1.7-2 times | 50
